From ChEMBL document CHEMBL5257078, “Alkaloids and Polyacetylenes from Hippobroma longiflora with Antiangiogenesis Properties” (J Nat Prod, 2023)
Converted amounts (≈) assume the structure as drawn.

Key:
[1] = Antiangiogenic activity in human EPC cells assessed as suppression of EPC tube formation incubated for 24 hrs by microscopic analysis; type: functional, cell-based
[2] = Cytotoxicity against human EPC cells assessed as LDH release; type: toxicity, cell-based

Compound | IC50 [1] | Activity [2]
O=C(c1ccccc1)[C@H]1CN2O[C@@H]1CCC[C@H]2C[C@H](O)c1ccccc1 | 33.4 µg/mL (≈ 95 µM) | Non-Toxic
O=C(c1ccccc1)[C@H]1CN2O[C@H]1CCC[C@@H]2C[C@H](O)c1ccccc1 | 44 µg/mL (≈ 125 µM) | Non-Toxic
O=C(c1ccccc1)[C@@H]1CN2O[C@@H]1CCC[C@H]2C[C@H](O)c1ccccc1 | 30.6 µg/mL (≈ 87.1 µM) | 

Continued, in another order:

IC50 [1] | Compound | Activity [2]
32 µg/mL (≈ 87.1 µM) | C[N@+]1([O-])CO[C@H](c2ccccc2)C[C@@H]1CCCCCC(=O)c1ccccc1 | Non-Toxic
24.5 µg/mL (≈ 114 µM) | C/C=C/C#C/C=C/c1c(O)cccc1CO | Non-Toxic
27.6 µg/mL (≈ 118 µM) | C/C=C/C#C/C=C/[C@@]1(O)[C@H](CO)CC=C[C@H]1O | Non-Toxic
21.1 µg/mL (≈ 98.5 µM) | C/C=C/C#C/C=C\c1c(O)cccc1CO | Non-Toxic
3.7 µg/mL (≈ 7.96 µM) | CNC(=O)c1cc(Oc2ccc(NC(=O)Nc3ccc(Cl)c(C(F)(F)F)c3)cc2)ccn1 [SORAFENIB] | 
